Test results as given in patent US12263248B2, “Compounds and compositions for intracellular delivery of therapeutic agents” (ModernaTX, Inc., priority 2018, dated 2025).
Marks after values point to notes of the source that are not given here.

Key:
[1] = Particle size and polydispersity index of nanoparticle compositions (Zetasizer Nano ZS); type: physicochemical; conditions: for PDI (Polydispersity index): lipid nanoparticle, ±SD within one assay run (Table 37)
Procedure, shortened: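 Values are size and PDI readings from a Zetasizer Nano ZS. Measurements are taken in 1×PBS; zeta potential, by contrast, uses 15 mM PBS.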

[2] = Lipid clearance: lipid level in mouse liver tissue (LC-MS/MS); type: in vivo
Description: Quantification of Lipid by LC-MS/MS: Liver samples were homogenized following addition of 19 eq. (w/v) of water (DF=20). Protein was precipitated and analyzed against calibration standards prepared in matching blank. Chromatographic separation and quantification was accomplished with a LC-MS/MS System. Samples were injected and separated via HPLC A triple-quadrupole MS/MS system operated in positive ion mode was used for signal detection.

hEPO mRNA = test: hEPO expression after intramuscular administration to mice; type: in vivo; conditions: for Fold increase in hEPO concentration relative to MC3: mice, 0.01 mpk, 6 hr time point
luciferase (Luc) mRNA = test: Luc expression in liver, lung, spleen and femur 6 hours after intravenous administration; type: in vivo; conditions: mice, intravenous, 0.5 mpk
Procedure, shortened: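 LNP-formulated mRNA given IV to mice (n=3) at 0.5 mpk; at 6 h, bioluminescence imaged ex vivo 15 min after IP D-luciferin (15 mg/mL, 200 μL), organs imaged within 25 min. Values are total flux by region of interest.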

IL-6, IP-10 = test: Cytokine induction in mice upon intravenous administration; type: in vivo; parameters: Cytokine induction IL-6 / Cytokine induction IP-10: unit not given here; conditions: 0.5 mpk, 6 hours; for Cytokine induction IL-6 / Cytokine induction IP-10: intravenous
Procedure, shortened: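 IL-6 and IP-10 concentrations determined 6 hours after a single intravenous 0.5 mpk dose of lipid nanoparticle formulation in mice, with MC3 and PBS as comparators.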

luciferase mRNA = test: Luciferase expression after subcutaneous administration to mice; type: in vivo, female CD-1 mice
Procedure, shortened: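 Female CD-1 mice given luciferase mRNA in lipid nanoparticle formulations subcutaneously at 0.5 mpk. Expression read by whole-body bioluminescence imaging at 3, 6 and 24 h, with ex vivo liver, spleen and injection-site luminescence at 24 h.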

[3] = Chemical stability of lipids in ethanol (lipid purity); type: physicochemical
Description: Ester linkages were previously reported to trigger metabolism by esterases in vivo. (See Fukami, T. et al. Drug Metab. Pharmacokinet. 2012, 27, 466-477, the content of which is incorporated by reference herein in its entirety). […] (See Maier M. A., Mol. Ther. 2013, 21, 1570-1578, the content of which is incorporated herein in its entirety) First, the chemical stability of the lipids was evaluated by measuring ethanol stability at room temperature and 37° C. (Table 39). […] LNPs formed with compound 138 were larger, with a surface pKa>7. […] Removal of one ester function (compound 136) afforded LNPs with improved physiochemical characteristics and lower LNP surface pKa.

[4] = Table 1A, lipid:DSPC:cholesterol:PEG-DMG 50:10:38.5:1.5 mol %
[5] = Table 1B, formulated with hEPO mRNA
[6] = Table 1D, for subcutaneous administration, # formulated with hEPO mRNA
[7] = nanoparticle composition with hEPO mRNA (Table 30)
[8] = nanoparticle composition with mRNA encoding anti-HA antibody (Table 33)
[9] = nanoparticle of rat tolerability study (Table 43)
[10] = Table 1C, compositions for subcutaneous administration

Structure (SMILES)	PDI ([1]; Table 1A)	Size (nm) [1, 4]	PDI [1, 5]	Size (nm) [1, 5]	PDI [1, 6]	Size (nm) [1, 6]	PDI (Polydispersity index) [1]	PDI [1, 7]	Fold increase in hEPO concentration relative to MC3 (hEPO mRNA)	Total Flux Femur (luciferase (Luc) mRNA)	Total Flux Liver (luciferase (Luc) mRNA)	Total Flux Lung (luciferase (Luc) mRNA)	Total Flux Spleen (luciferase (Luc) mRNA)	Cytokine induction IL-6 (IL-6, IP-10)	Cytokine induction IP-10 (IL-6, IP-10)	Lipid Purity ([3]; t = 0)	Lipid Purity ([3]; t = 96 h, 25° C.)	Lipid Purity ([3]; t = 96 h, 37° C.)	also measured
CCCCCCCCCOC(=O)CCCCCCCN(CCO)CCCCCCCC(=O)OC(CCCCCCCC)CCCCCCCC [Compound 18, Heptadecan-9-yl 8-((2-hydroxyethyl)(8-(nonyloxy)-8-oxooctyl)amino)octanoate]	018	87.9 nm	0.14	73.7 nm	0.11	75.0 nm	0.04 ± 0.06	0.230	8.6	4.68E+06	2.76E+09	1.25E+07	5.15E+07	78.76	139.92	94.37%	94.71%	95.01%	PDI ([1]; lipid:DSPC:Chol:PEG-DMG (50:10:38.5:1.5), hEPO mRNA): 0.095; Diameter [1, 8]: 76.8 nm; PDI [1, 8]: 0.16; Diameter [1, 9]: 80 nm; PDI [1, 9]: 0.19; % dose remaining Mouse liver tissue, 24 h ([2]; CD-1 mouse liver 24 h after 0.5 mg/kg bolus dose mRNA, n = 5 ± S.D.): 0%; original dose remaining in liver tissue 24 hours post dose ([2]; mice, intravenous): no lipid detected; IP-10 induction (IL-6, IP-10; i.v., in words): lowest; Novel lipid/MC3 expression ratio, 6 hr. time point, s.c. Luc 0.05 mpk (luciferase mRNA; 0.05 mpk, relative to MC3): 2.63
CCCCCCCCCCCOC(=O)CCCCCN(CCO)CCCCCCCC(=O)OC(CCCCCCCC)CCCCCCCC [Compound 25, Heptadecan-9-yl 8-((2-hydroxyethyl)(6-oxo-6-(undecyloxy)hexyl)amino)octanoate]	0.10	85.8 nm	0.14	69.7 nm	0.13	77.6 nm	0.10 ± 0.05	0.230	7.1	4.40E+06	2.41E+09	1.51E+07	3.11E+07	233.45	1194.13	95.58%	96.23%	96.13%	PDI [1, 10]: 0.16; Size (nm) [1, 10]: 76.3 nm; Novel lipid/MC3 ratio, 6 hr. timepoint, i.m. hEPO (hEPO mRNA; relative to MC3, Table 3G): 7.1; Novel lipid/MC3 expression ratio, s.c. Luc 0.5 mpk (AUC) (luciferase mRNA; 0.5 mpk, AUC, relative to MC3): (AUC: 1.7); Lipid/MC3 AUC ratio (luciferase mRNA; 0.5 mpk, luciferase): 1.70; AUC (luciferase expression) (luciferase mRNA; 0.5 mpk, whole body BLI): 2.9156E+10 (p/s) * h; Novel lipid/MC3 ratio, s.c. Luc 6 hr. (luciferase mRNA; 6 hr., relative to MC3, Table 3G): 1.73
